According to publication PMC9054546, “Synthesis and molecular modeling studies of cholinesterase inhibitor dispiro[indoline-3,2′-pyrrolidine-3′,3′′-pyrrolidines]” (RSC Advances, 2020):
Where “and” joins values, the source holds several entries; their conditions need not be identical. Equal entries are not always repeated. Where two headings read alike, the source gives them in different places.

Key:
AChE [1] = target: T1, AChE (Homo sapiens, UniProt P22303); assay: biochemical; conditions: for SI(AChE/BChE): selectivity index = IC50 (AChE)/IC50 (BChE)
T1 sequence (P22303 32-614): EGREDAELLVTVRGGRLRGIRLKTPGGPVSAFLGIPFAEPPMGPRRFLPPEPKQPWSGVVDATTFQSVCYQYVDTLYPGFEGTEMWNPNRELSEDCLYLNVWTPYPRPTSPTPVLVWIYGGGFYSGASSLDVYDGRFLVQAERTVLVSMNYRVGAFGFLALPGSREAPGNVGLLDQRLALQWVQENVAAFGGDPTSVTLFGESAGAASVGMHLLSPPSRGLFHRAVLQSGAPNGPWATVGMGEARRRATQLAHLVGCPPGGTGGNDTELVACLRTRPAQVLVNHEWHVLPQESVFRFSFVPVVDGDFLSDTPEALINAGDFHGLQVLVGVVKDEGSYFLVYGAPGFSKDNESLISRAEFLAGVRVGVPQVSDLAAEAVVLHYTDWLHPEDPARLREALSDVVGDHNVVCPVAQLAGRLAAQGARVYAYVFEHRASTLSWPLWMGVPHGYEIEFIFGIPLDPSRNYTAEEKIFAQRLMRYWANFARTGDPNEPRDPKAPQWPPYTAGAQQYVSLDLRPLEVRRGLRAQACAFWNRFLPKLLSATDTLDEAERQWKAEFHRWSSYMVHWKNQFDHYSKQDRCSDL
Protocol: (§1) Butyrylthiocholine iodide and acetylthiocholine were utilized as substrates in BChE and AChE assays, respectively, where DTNB was served as indicator. All compounds were dissolved in MeOH. […] Blank assays were performed by replacing the enzyme (20 μL) with buffer and their absorbances were recorded for correction of the spontaneous lysis of the indicator or inherent color of the inhibitor.
Selectivity index (SI) for acetyl and butyryl cholinesterases was calculated as follow:SI(AChE/BChE) = IC50 (AChE)/IC50 (BChE)SI(BChE/AChE) = […]

BChE [2] = target: T2, BChE (Homo sapiens, UniProt P06276); assay: biochemical; conditions: for SI(BChE/AChE): selectivity index BChE/AChE
T2 sequence (P06276 29-602): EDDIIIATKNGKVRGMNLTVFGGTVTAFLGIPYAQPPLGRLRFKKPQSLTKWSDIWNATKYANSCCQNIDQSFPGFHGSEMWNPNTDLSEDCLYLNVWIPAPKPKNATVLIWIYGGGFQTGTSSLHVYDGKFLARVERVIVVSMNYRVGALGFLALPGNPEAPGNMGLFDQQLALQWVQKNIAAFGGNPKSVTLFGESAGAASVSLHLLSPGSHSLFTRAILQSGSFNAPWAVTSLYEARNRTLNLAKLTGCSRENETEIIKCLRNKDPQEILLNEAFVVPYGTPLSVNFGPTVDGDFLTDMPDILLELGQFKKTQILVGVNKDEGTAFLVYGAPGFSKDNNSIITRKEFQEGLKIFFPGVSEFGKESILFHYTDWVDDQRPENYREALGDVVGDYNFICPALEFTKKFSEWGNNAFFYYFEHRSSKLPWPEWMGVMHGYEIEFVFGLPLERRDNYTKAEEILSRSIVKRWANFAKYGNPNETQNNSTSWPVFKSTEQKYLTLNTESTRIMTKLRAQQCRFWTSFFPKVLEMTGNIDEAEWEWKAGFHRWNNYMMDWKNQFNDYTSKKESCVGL
Protocol: as §1, with “inhibitor. […]” for “inhibitor.”

[3] = test system: RPE1 (human immortalized retinal pigment epithelial cell line); assay: Antiproliferative/cytotoxicity MTT assay on normal cell line; assay type: cell-based; conditions: RPE-1, 72 h incubation, tested at 100, 50, 25 and 12.5 μM, read-out: IC50 against RPE1
Source text: Antiproliferative properties of the synthesized agents 8a–l were considered against RPE1 (human immortalized retinal pigment epithelial cell line) normal cell line utilizing the standard MTT (tetrazolium salt) technique.[37]
The synthesized agents 8a–l were screened against RPE1 (human immortalized retinal pigment epithelial cell line) normal cell line to investigate their cytotoxicity by the standard mitochondrial dependent reduction of yellow MTT [3-(4,5-dimethylthiazol-2-yl)-2,5-diphenyl-tetrazolium bromide] to purple formazan technique.[37] Cells were suspended in DMEM in addition to 1% antibiotic–antimycotic mixture (10 000 μg mL^−1 potassium penicillin, 10 000 μg mL^−1 streptomycin sulfate and 25 μg mL^−1 amphotericin B), 10% fetal bovine serum and 1% L-glutamine at 37 °C, under 5% CO2 and 95% humidity. Cells were seeded at concentration of 30 000 cells per well in fresh complete growth medium in 96-well tissue culture microtiter plates for 24 h. […] 0.5% DMSO was used as negative control. Triplicate wells were prepared for each individual dose. After 72 h of incubation, medium was aspirated, 40 μl MTT salt (2.5 mg mL^−1) were added to each well and incubated for further 4 h at 37 °C. To stop the reaction and dissolve the formed crystals, 150 μL of 10% sodium dodecyl sulfate (SDS) in deionized water were added to each well and incubated overnight at 37 °C.
Data were collected as mean values for experiments performed in triplicates for each individual dose which had been measured by MTT assay. […] The percentage of cell survival was calculated according to the following equation. [drawing 1]
Statistical calculations for determination of the mean and standard error values were determined by SPSS 16 software.

AChE [4] = target: T1, AChE; assay: 2D-QSAR (BMLR, CODESSA-Pro) model, AChE inhibitors; conditions: observed minus estimated IC50
Source text: (§2) The cholinesterase properties observed were undertaken by CODESSA-Pro software accessible for optimizing 2D-QSAR models.[39–41] This is useful for well understanding the bio-observations and identifying the parameters necessary for bio-potency. Three descriptor QSAR models were developed due to the AChE and BChE inhibitory properties of the synthesized dispiro-compounds 8a–l (ESI Tables S4–S9, Fig. S40 and S41, details of the QSAR descriptors are also mentioned in the ESI). ^† […]
(§3) Goodness of the QSAR models was supported by the comparative values of the correlation coefficient (R^2) with their cross validation of leave one-out (R^2cvOO) and leave many-out (R^2cvMO) [R^2 = 0.923, 0.979; R^2cvOO = 0.882, 0.936; R^2cvMO = 0.904, 0.956, for AChE and BChE models, respectively]. Standard deviation (s^2) and Fisher criteria (F) values of the models also support their goodness (s^2 = 0.026, 0.005; […]. Additionally, the correlations of the observed and predicted values “specially the high potent synthesized compounds” add good support for the attained models. […]
(§4) Molecular modeling studies
(§5) The synthesized dispiro[indoline-3,2'-pyrrolidine-3',3''-pyrrolidines] 8a‒l […]
(§6) 2D-QSAR modeling by CODESSA-Pro (comprehensive descriptors for structural and statistical analysis) software. Geometry of the compounds was initially optimized by AM1 technique using hyperChem 8.0 then, uploaded to CODESSA-Pro for final geometrical structure optimization by MOPAC.10‒12 CODESSA-Pro calculated 656 molecular descriptors (constitutional, topological, geometrical, charge-related, semi-empirical, thermodynamical, molecular-type, atomic-type and bond-type descriptors) for […]
(§7) the exported bio-active agents. Mathematical transformation of the experimental values […]
(§8) QSAR model. The best multi-linear regression (BMLR) technique was utilized which is a stepwise search for the best n-parameter regression equations (where n stands for the number of descriptors used), based on the highest R2 (squared correlation coefficient), R2cvOO (squared cross-validation “leave one-out, LOO” coefficient), R2cvMO (squared cross-validation “leave many-out up to 20% of the training set, LMO” coefficient), F (Fisher statistical significance criteria) values, and s2 (standard deviation). The QSAR up to 3-descriptor model describing the biological activity of the bio-active agents were generated (obeying the thumb rule of 4:1 which is the ratio between the data points and the number of QSAR descriptor).
(§9) Minimum (>0.1) bond order for atom C is an atomic type descriptor with the […]
(§10) why the higher descriptor value, the lower AChE inhibitory efficacy of the tested agent as […]
(§11) 2/SQRT(TMSA) (MOPAC PC) is a charge related descriptor with relatively high […]
(§12) . Compounds with high descriptor value predicted low AChE
(§13) 0.11715). HDCA2 (area weighed surface charge of hydrogen bonding donor atoms) can be calculated by equ. (1). 13
(§14) HDCA2 = D … .DtotH‒donor (1)
(§15) Where, standsSD for the solvent accessible surface area of H-bonding donor H atoms (selected by threshold charge), is the partialqD charge on H-bonding donor H atoms (selected by threshold charge) and is the totalStot solvent accessible molecular surface […]
(§16) Square root of surface area for atom C is also a charge related descriptor with […]
(§17) . For this reason, the higher descriptor value of […]

BChE [5] = target: T2, BChE; assay: 2D-QSAR (BMLR, CODESSA-Pro) model, BChE inhibitors; conditions: observed minus estimated IC50
Source text: as §2, §3, §4, §5, §6, §7, §8, §9, §10, §11, §12, §13, §14, §15, §16, §17
partial positively and negatively charged surface area can be calculated by equs. (2) and […]
PPSA3 = A … .. (2)A∈{δA>0}
PNSA3 = A … ..A∈{δA>0} (3)
Where, is the positively/negativelySA charged solvent accessible atomic surface area and qA is the atomic partial charge.
ZX Shadow/ZX rectangle is a geometrical descriptor with the highest coefficient […]
. The higher descriptor value of […]
compounds 8c and 8e, respectively). Relative shadow areas of a molecule can be determined by equ. (4). 13
Where, C is contour of the projection of the molecule on the plane defined by two principal axes of the molecule (k = XY, XZ or YZ plane), , , = X • ν –x or yρ –y or zS(k) […]
Maximum atomic state energy for atom O is an atomic type descriptor. […]

[6] = 10 min incubation at 25 °C, read at 405 nm, read-out: IC50 of AChE (μM) ± SD
[7] = log transformation of the observed IC50, read-out: Observed log(IC50, μM), AChE (converted)
[8] = 10 min incubation at 25 °C, read at 405 nm, read-out: IC50 of BChE (μM) ± SD
[9] = log transformation of the observed IC50, read-out: Observed log(IC50, μM), BChE (converted)

Row | SMILES | IC50 (AChE [1]; [6]) [µM] | IC50 (AChE [1]; [7]) [µM] | SI(AChE/BChE) (AChE [1]) | IC50 (BChE [2]; [8]) | IC50 (BChE [2]; [9]) [µM] | SI(BChE/AChE) (BChE [2]) | IC50 [3] [µM] | Error (difference between observed and estimated property values), AChE BMLR-QSAR model (AChE [4]) [µM] | Error (difference between observed and estimated property values), BChE BMLR-QSAR model (BChE [5]) [µM]
1 | CN1CC(c2ccccc2)C2(CC(=O)N(c3ccccc3)C2=O)C12C(=O)Nc1ccccc12 (stereo not drawn) [Compound 8a, 1′-Methyl-1′′,4′-diphenyldispiro[indoline-3,2′-pyrrolidine-3′,3′′-pyrrolidine]-2,2′′,5′′-trione] | 117 | 117 | 1.43 | 81.8 µM | 81.8 | 0.70 | > 100 | -13.41 | 12.80
2 | CN1CC(c2ccccc2)C2(CC(=O)N(c3ccccc3)C2=O)C12C(=O)Nc1ccc(Cl)cc12 (stereo not drawn) [Compound 8b, 5-Chloro-1′-methyl-1′′,4′-diphenyldispiro[indoline-3,2′-pyrrolidine-3′,3′′-pyrrolidine]-2,2′′,5′′-trione] | 13.6 ± 0.62 | 13.6 | 0.32 | 42.5 µM and 42.4 µM | 42.5 | 3.12 | > 100 | 0.13 | -6.64
3 | COc1ccc2c(c1)C1(C(=O)N2)N(C)CC(c2ccccc2)C12CC(=O)N(c1ccccc1)C2=O (stereo not drawn) [Compound 8c, 5-Methoxy-1′-methyl-1′′,4′-diphenyldispiro[indoline-3,2′-pyrrolidine-3′,3′′-pyrrolidine]-2,2′′,5′′-trione] | 103 | 103 | 1.43 | 71.7 µM | 71.7 | 0.70 | > 100 | 18.50 | 7.44
4 | CN1CC(c2ccc(Cl)cc2)C2(CC(=O)N(c3ccccc3)C2=O)C12C(=O)Nc1ccc(Cl)cc12 (stereo not drawn) [Compound 8d, 5-Chloro-4′-(4-chlorophenyl)-1′-methyl-1′′-phenyldispiro[indoline-3,2′-pyrrolidine-3′,3′′-pyrrolidine]-2,2′′,5′′-trione] | 24.3 ± 4.08 | 24.3 | 1.14 | 21.3 µM | 21.3 | 0.88 | > 100 | 13.92 | -5.91
5 | COc1ccc(C2CN(C)C3(C(=O)Nc4ccc(Cl)cc43)C23CC(=O)N(c2ccccc2)C3=O)cc1 (stereo not drawn) [Compound 8f, 5-Chloro-4′-(4-methoxyphenyl)-1′-methyl-1′′-phenyldispiro[indoline-3,2′-pyrrolidine-3′,3′′-pyrrolidine]-2,2′′,5′′-trione] | 12.3 | 12.3 | 0.61 | 20.1 ± 0.16 µM | 20.1 | 1.64 | > 100 | 1.32 | 1.88
6 | CN1CC(c2ccccc2)C2(CC(=O)N(c3ccc(Cl)cc3)C2=O)C12C(=O)Nc1ccc(Cl)cc12 (stereo not drawn) [Compound 8i, 5-Chloro-1′′-(4-chlorophenyl)-1′-methyl-4′-phenyldispiro[indoline-3,2′-pyrrolidine-3′,3′′-pyrrolidine]-2,2′′,5′′-trione] | 39.4 | 39.4 | 1.12 | 35.1 µM | 35.1 | 0.89 | > 100 | -3.69 | -3.48
7 | CN1CC(c2ccc(Cl)cc2)C2(CC(=O)N(c3ccc(Cl)cc3)C2=O)C12C(=O)Nc1ccccc12 (stereo not drawn) [Compound 8j, 1′′,4′-Bis(4-chlorophenyl)-1′-methyldispiro[indoline-3,2′-pyrrolidine-3′,3′′-pyrrolidine]-2,2′′,5′′-trione] | 21 | 21 | 1.54 | 13.6 µM | 13.6 | 0.65 | > 100 | -0.80 | 1.51
8 | CN1CC(c2ccc(Cl)cc2)C2(CC(=O)N(c3ccc(Cl)cc3)C2=O)C12C(=O)Nc1ccc(Cl)cc12 (stereo not drawn) [Compound 8k, 5-Chloro-1′′,4′-bis(4-chlorophenyl)-1′-methyldispiro[indoline-3,2′-pyrrolidine-3′,3′′-pyrrolidine]-2,2′′,5′′-trione] | 13.9 | 13.9 | 1.36 | 10.2 ± 0.76 µM | 10.2 | 0.73 | > 100 | -0.82 | 1.09
